The numbers were not newly measured in article PMC6270655, “Mixed Antimony(V) Complexes with Different Sugars to Modulate the Oral Bioavailability of Pentavalent Antimonial Drugs” (Molecules, 2014), which cites them from elsewhere.

Details of this series: method as in PMID 22573856.

For the compound `CCCCCCCCCCCCCCCCOP(=O)([O-])OCC[N+](C)(C)C` [miltefosine, hexadecylphosphocholine], the half-life is reported as ~ 150 h.
